# ChEMBL document CHEMBL4145553, “Design, synthesis, and biological evaluation of novel amide and hydrazide based thioether analogs targeting Histone deacteylase (HDAC) enzymes” (Eur J Med Chem, 2018)
# The source made the active and inactive calls. The rule behind the calls is not given here.
# Assays:
# OVCAR-3 [1] = assay: Growth inhibition of human OVCAR3 cells assessed as cell growth at 10^-6 M incubated for 48 hrs by sulforhodamine B assay relative to control; format: functional; conditions: OVCAR-3, 48 h, read-out: Activity
# SK-MEL-28 = assay: Growth inhibition of human SK-MEL-28 cells assessed as cell growth at 10^-6 M incubated for 48 hrs by sulforhodamine B assay relative to control; format: functional; conditions: SK-MEL-28, 48 h, read-out: Activity
# SK-MEL-2 = assay: Growth inhibition of human SK-MEL-2 cells assessed as cell growth at 10^-4 M incubated for 48 hrs by sulforhodamine B assay relative to control; format: functional; conditions: SK-MEL-2, 48 h, read-out: Activity
# M14 [2] = assay: Growth inhibition of human M14 cells incubated for 48 hrs by sulforhodamine B assay; format: functional; conditions: M14, 48 h
# MDA-MB-468 = assay: Growth inhibition of human MDA-MB-468 cells assessed as cell growth at 10^-5 M incubated for 48 hrs by sulforhodamine B assay relative to control; format: functional; conditions: MDA-MB-468, 48 h, read-out: Activity
# SR = assay: Growth inhibition of human SR cells assessed as cell growth at 10^-7 M incubated for 48 hrs by sulforhodamine B assay relative to control; format: functional; conditions: read-out: Activity
# MDA-MB-435 [3] = assay: Induction of apoptosis in human MDA-MB-435 cells assessed as late apoptotic cells by propidium iodide/Annexin V staining based flow cytometry (reference value: 0.22%); format: functional
# EKVX [4] = assay: Growth inhibition of human EKVX cells assessed as cell growth at 10^-8 M incubated for 48 hrs by sulforhodamine B assay relative to control; format: functional; conditions: read-out: Activity
# MCF7 [5] = assay: Growth inhibition of human MCF7 cells assessed as cell growth at 10^-5 M incubated for 48 hrs by sulforhodamine B assay relative to control; format: functional; conditions: MCF7, 48 h, read-out: Activity
# M14 [6] = assay: Growth inhibition of human M14 cells assessed as cell growth at 10^-8 M incubated for 48 hrs by sulforhodamine B assay relative to control; format: functional; conditions: M14, 48 h, read-out: Activity
# SF-295 = assay: Growth inhibition of human SF295 cells assessed as cell growth at 10^-8 M incubated for 48 hrs by sulforhodamine B assay relative to control; format: functional; conditions: SF-295, 48 h, read-out: Activity
# 786-0 = assay: Growth inhibition of human 786-0 cells assessed as cell growth at 10^-5 M incubated for 48 hrs by sulforhodamine B assay relative to control; format: functional; conditions: 786-0, 48 h, read-out: Activity
# K562 = assay: Growth inhibition of human K562 cells incubated for 48 hrs by sulforhodamine B assay; format: functional; conditions: K562, 48 h
# SF-268 = assay: Growth inhibition of human SF268 cells assessed as cell growth at 10^-5 M incubated for 48 hrs by sulforhodamine B assay relative to control; format: functional; conditions: SF-268, 48 h, read-out: Activity
# NCI/ADR-RES = assay: Growth inhibition of human NCI/ADR-RES cells incubated for 48 hrs by sulforhodamine B assay; format: functional
# OVCAR-3 [7] = assay: Growth inhibition of human OVCAR3 cells incubated for 48 hrs by sulforhodamine B assay; format: functional; conditions: OVCAR-3, 48 h
# MDA-MB-435 [8] = assay: Downregulation of HDAC2 mRNA expression in human MDA-MB-435 cells by qRT-PCR method relative to control; format: functional
# SN12C = assay: Growth inhibition of human SN12C cells assessed as cell growth at 10^-7 M incubated for 48 hrs by sulforhodamine B assay relative to control; format: functional; conditions: read-out: Activity
# MDA-MB-435 [9] = assay: Growth inhibition of human MDA-MB-435 cells assessed as cell growth at 10^-4 M incubated for 48 hrs by sulforhodamine B assay relative to control; format: functional; conditions: MDA-MB-435, 48 h, read-out: Activity
# HL-60 = assay: Downregulation of HDAC8 mRNA expression in human HL60 cells by qRT-PCR method; format: functional, cell-based
# COLO 205 = assay: Growth inhibition of human COLO205 cells assessed as cell growth at 10^-8 M incubated for 48 hrs by sulforhodamine B assay relative to control; format: functional; conditions: COLO 205, 48 h, read-out: Activity
# EKVX [10] = assay: Growth inhibition of human EKVX cells assessed as cell growth at 10^-4 M incubated for 48 hrs by sulforhodamine B assay relative to control; format: functional; conditions: read-out: Activity
# NCI-H460 = assay: Growth inhibition of human NCI-H460 cells assessed as cell growth at 10^-5 M incubated for 48 hrs by sulforhodamine B assay relative to control; format: functional; conditions: NCI-H460, 48 h, read-out: Activity
# OVCAR-3 [11] = assay: Growth inhibition of human OVCAR3 cells assessed as cell growth at 10^-7 M incubated for 48 hrs by sulforhodamine B assay relative to control; format: functional; conditions: OVCAR-3, 48 h, read-out: Activity
# SK-OV-3 = assay: Growth inhibition of human SKOV3 cells assessed as cell growth at 10^-6 M incubated for 48 hrs by sulforhodamine B assay relative to control; format: functional; conditions: SK-OV-3, 48 h, read-out: Activity
# UACC-257 = assay: Growth inhibition of human UACC257 cells assessed as cell growth at 10^-4 M incubated for 48 hrs by sulforhodamine B assay relative to control; format: functional; conditions: UACC-257, 48 h, read-out: Activity
# MDA-MB-435 [12] = assay: Growth inhibition of human MDA-MB-435 cells assessed as cell growth at 10^-5 M incubated for 48 hrs by sulforhodamine B assay relative to control; format: functional; conditions: MDA-MB-435, 48 h, read-out: Activity
# MCF7 [13] = assay: Growth inhibition of human MCF7 cells assessed as cell growth at 10^-8 M incubated for 48 hrs by sulforhodamine B assay relative to control; format: functional; conditions: MCF7, 48 h, read-out: Activity
# RXF 393 = assay: Growth inhibition of human RXF393 cells assessed as cell growth at 10^-5 M incubated for 48 hrs by sulforhodamine B assay relative to control; format: functional; conditions: RXF 393, 48 h, read-out: Activity
# T47D = assay: Growth inhibition of human T47D cells assessed as cell growth at 10^-8 M incubated for 48 hrs by sulforhodamine B assay relative to control; format: functional; conditions: read-out: Activity
# SW-620 = assay: Growth inhibition of human SW620 cells assessed as cell growth at 10^-7 M incubated for 48 hrs by sulforhodamine B assay relative to control; format: functional; conditions: SW-620, 48 h, read-out: Activity
# HOP-62 = assay: Growth inhibition of human HOP62 cells assessed as cell growth at 10^-8 M incubated for 48 hrs by sulforhodamine B assay relative to control; format: functional; conditions: HOP-62, 48 h, read-out: Activity
# [14] = read-out: LC50 (the source's name)
# [15] = read-out: pLC50 (the source's name) (converted)
smiles,measurement,setting,value
CCS/C(Nc1ccccc1)=C(\C#N)C(=O)N/N=C\c1ccc(Cl)cc1Cl,growth at 1 µM,OVCAR-3 [1],90%
same,growth at 1 µM,SK-MEL-28,79%
same,growth at 100 µM,SK-MEL-2,-9%
same,GI50,M14 [2]; read-out: GI50,2.01 µM
same,CC50,M14 [2]; [14],> 100 µM
same,TGI,M14 [2]; read-out: TGI,9.61 µM
same,GI50,M14 [2]; read-out: pGI50 (converted),2 µM
same,CC50,M14 [2]; [15],> 100 µM
same,TGI,M14 [2]; read-out: pTGI (converted),9.55 µM
same,growth at 10 µM,MDA-MB-468,-3%
same,growth at 0.1 µM,SR,80%
same,Activity,MDA-MB-435 [3],3.47%
same,growth at 0.01 µM,EKVX [4],98%
same,growth at 10 µM,MCF7 [5],14%
same,growth at 0.01 µM,M14 [6],101%
same,growth at 0.01 µM,SF-295,95%
same,growth at 10 µM,786-0,23%
same,GI50,K562; read-out: GI50,0.855 µM
same,CC50,K562; [14],> 100 µM
same,TGI,K562; read-out: TGI,> 100 µM
same,GI50,K562; read-out: pGI50 (converted),0.851 µM
same,CC50,K562; [15],> 100 µM
same,TGI,K562; read-out: pTGI,> 100 µM
same,growth at 10 µM,SF-268,42%
same,GI50,NCI/ADR-RES; read-out: GI50,3.16 µM
same,CC50,NCI/ADR-RES; [14],> 100 µM
same,TGI,NCI/ADR-RES; read-out: TGI,> 100 µM
same,GI50,NCI/ADR-RES; read-out: pGI50 (converted),3.16 µM
same,CC50,NCI/ADR-RES; [15],> 100 µM
same,TGI,NCI/ADR-RES; read-out: pTGI,> 100 µM
same,GI50,OVCAR-3 [7]; read-out: GI50,2.8 µM
same,CC50,OVCAR-3 [7]; [14],> 100 µM
same,TGI,OVCAR-3 [7]; read-out: TGI,10.8 µM
same,GI50,OVCAR-3 [7]; read-out: pGI50 (converted),2.82 µM
same,CC50,OVCAR-3 [7]; [15],> 100 µM
same,TGI,OVCAR-3 [7]; read-out: pTGI (converted),10.7 µM
same,fold change (FC),MDA-MB-435 [8],<=10
same,growth at 0.1 µM,SN12C,92%
same,growth at 100 µM,MDA-MB-435 [9],-52%
same,Activity,HL-60,Active
same,growth at 0.01 µM,COLO 205,101%
same,growth at 100 µM,EKVX [10],29%
same,growth at 10 µM,NCI-H460,9%
same,growth at 0.1 µM,OVCAR-3 [11],97%
same,growth at 1 µM,SK-OV-3,92%
same,growth at 100 µM,UACC-257,35%
same,growth at 10 µM,MDA-MB-435 [12],-53%
same,growth at 0.01 µM,MCF7 [13],97%
same,growth at 10 µM,RXF 393,-5%
same,growth at 0.01 µM,T47D,102%
same,growth at 0.1 µM,SW-620,92%
same,growth at 0.01 µM,HOP-62,93%
CCS/C(Nc1ccccc1)=C(\C#N)C(=O)Nc1ccc(OC)cc1,growth at 1 µM,OVCAR-3 [1],90%
same,growth at 1 µM,SK-MEL-28,85%
same,growth at 100 µM,SK-MEL-2,14%
same,GI50,M14 [2]; read-out: GI50,2.27 µM
same,CC50,M14 [2]; [14],> 100 µM
same,TGI,M14 [2]; read-out: TGI,87.4 µM
same,GI50,M14 [2]; read-out: pGI50 (converted),2.29 µM
same,CC50,M14 [2]; [15],> 100 µM
same,TGI,M14 [2]; read-out: pTGI (converted),87.1 µM
same,growth at 10 µM,MDA-MB-468,-9%
same,growth at 0.1 µM,SR,85%
same,Activity,MDA-MB-435 [3],6.38%
same,growth at 0.01 µM,EKVX [4],89%
same,growth at 10 µM,MCF7 [5],15%
same,growth at 0.01 µM,M14 [6],102%
same,growth at 0.01 µM,SF-295,94%
same,growth at 10 µM,786-0,30%
same,GI50,K562; read-out: GI50,0.436 µM
same,CC50,K562; [14],> 100 µM
same,TGI,K562; read-out: TGI,> 100 µM
same,GI50,K562; read-out: pGI50 (converted),0.437 µM
same,CC50,K562; [15],> 100 µM
same,TGI,K562; read-out: pTGI,> 100 µM
same,growth at 10 µM,SF-268,42%
same,GI50,NCI/ADR-RES; read-out: GI50,2.62 µM
same,CC50,NCI/ADR-RES; [14],> 100 µM
same,TGI,NCI/ADR-RES; read-out: TGI,> 100 µM
same,GI50,NCI/ADR-RES; read-out: pGI50 (converted),2.63 µM
same,CC50,NCI/ADR-RES; [15],> 100 µM
same,TGI,NCI/ADR-RES; read-out: pTGI,> 100 µM
same,GI50,OVCAR-3 [7]; read-out: GI50,2.61 µM
same,CC50,OVCAR-3 [7]; [14],> 100 µM
same,TGI,OVCAR-3 [7]; read-out: TGI,8.59 µM
same,GI50,OVCAR-3 [7]; read-out: pGI50 (converted),2.63 µM
same,CC50,OVCAR-3 [7]; [15],> 100 µM
same,TGI,OVCAR-3 [7]; read-out: pTGI (converted),8.51 µM
same,fold change (FC),MDA-MB-435 [8],<=10
same,growth at 0.1 µM,SN12C,97%
same,growth at 100 µM,MDA-MB-435 [9],-35%
same,Activity,HL-60,Active
same,growth at 0.01 µM,COLO 205,111%
same,growth at 100 µM,EKVX [10],16%
same,growth at 10 µM,NCI-H460,10%
same,growth at 0.1 µM,OVCAR-3 [11],97%
same,growth at 1 µM,SK-OV-3,93%
same,growth at 100 µM,UACC-257,37%
same,growth at 10 µM,MDA-MB-435 [12],-49%
same,growth at 0.01 µM,MCF7 [13],98%
same,growth at 10 µM,RXF 393,-10%
same,growth at 0.01 µM,T47D,99%
same,growth at 0.1 µM,SW-620,94%
same,growth at 0.01 µM,HOP-62,92%
